Test results published in patent US12180187B2, “1-phenyl-5-azinylpyrazolyl-3-oxyalkyl acids and their use for controlling unwanted plant growth” (BAYER AKTIENGESELLSCHAFT, priority 2019, dated 2024).

Experiments:
DIGSA [1] = assay: Pre-emergence action against DIGSA, 1280 g/ha; assay type: in vivo, Digitaria sanguinalis; conditions: visual scoring after about 3 weeks vs untreated controls, 100% = plants have died, 0% = like control plants
How it was run: (§1)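 Weed seeds sown in sandy loam in pots, covered with soil; compound as WP or EC applied to soil surface as aqueous suspension/emulsion with 0.5% additive at 600 L/ha water. Greenhouse, good growth conditions; visual % damage vs untreated controls after about 3 weeks (100% = plants dead, 0% = like control).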

LOLRI [2] = assay: Pre-emergence action against LOLRI, 1280 g/ha; assay type: in vivo, Lolium rigidum; conditions: visual scoring after about 3 weeks vs untreated controls, 100% = plants have died, 0% = like control plants; for pest or weed control at 1280 g/ha: Lolium rigidum, 504 h
How it was run: as §1

VERPE [3] = assay: Pre-emergence action against VERPE, 1280 g/ha; assay type: in vivo, Veronica persica; conditions: scored visually after about 3 weeks vs untreated controls (100% = plants have died); for pest or weed control at 1280 g/ha: Veronica persica, 504 h
How it was run: as §1

AVEFA = assay: Pre-emergence action at 320 g/ha against AVEFA; assay type: in vivo; conditions: visual scoring after about 3 weeks vs untreated controls; for pest or weed control at 320 g/ha: Avena fatua, 504 h
How it was run: (§2)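 Weed and crop seeds sown in pots and covered with soil; WP or EC formulations sprayed pre-emergence onto the soil surface at 320 g/ha with 0.5% additive in 600 l/ha water. Kept in greenhouse; after about 3 weeks activity scored visually as % versus untreated controls (100% = plants dead, 0% = as control).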

LOLRI [4] = assay: Pre-emergence action at 320 g/ha against LOLRI; assay type: in vivo, Lolium rigidum; conditions: visual scoring after about 3 weeks vs untreated controls; for pest or weed control at 320 g/ha: Lolium rigidum, 504 h
How it was run: as §2

VERPE [5] = assay: Pre-emergence action at 320 g/ha against VERPE; assay type: in vivo, Veronica persica; conditions: visual scoring after about 3 weeks vs untreated controls; for pest or weed control at 320 g/ha: Veronica persica, 504 h
How it was run: as §2

VERPE [6] = assay: Post-emergence action against VERPE, 1.28 kg/ha; assay type: in vivo, Veronica persica; conditions: dosage 1280 g/ha, visual rating about 3 weeks after treatment vs untreated controls (100% = plants died); for pest or weed control at 1280 g/ha: Veronica persica, 504 h
How it was run: (§3)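 Greenhouse-grown weeds (sandy loam, twin-sown pots) were treated 2–3 weeks post-sowing at one leaf. The spray was an aqueous WP/EC preparation plus 0.5% additive, applied at 600 L/ha. Scoring was visual at ~3 weeks, 0–100% versus untreated controls.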

ALOMY [7] = assay: Post-emergence action against ALOMY, 320 g/ha; assay type: in vivo, Alopecurus myosuroides; conditions: dosage 320 g/ha, visual rating about 3 weeks after treatment vs untreated controls (100% = plants died)
How it was run: (§4)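 Greenhouse-grown plants sprayed post-emergence at the one-leaf stage, 2 to 3 weeks after sowing, with WP or EC formulations plus 0.5% additive at 600 l/ha water, at 320 g/ha. Activity rated visually after about 3 weeks versus untreated controls (100% = plants died, 0% = like control).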

AMARE = assay: Post-emergence action at 320 g/ha against AMARE; assay type: in vivo, Amaranthus retroflexus; conditions: visual rating about 3 weeks after treatment vs untreated controls; for pest or weed control at 320 g/ha: Amaranthus retroflexus, 504 h
How it was run: as §4

PHBPU = assay: Post-emergence action at 320 g/ha against PHBPU; assay type: in vivo; conditions: visual rating about 3 weeks after treatment vs untreated controls
How it was run: as §4

ALOMY [8] = assay: Post-emergence action against ALOMY, 1.28 kg/ha; assay type: in vivo, Alopecurus myosuroides; conditions: dosage 1280 g/ha, visual rating about 3 weeks after treatment vs untreated controls
How it was run: as §3

DIGSA [9] = assay: Post-emergence action against DIGSA, 1.28 kg/ha; assay type: in vivo, Digitaria sanguinalis; conditions: dosage 1280 g/ha, visual rating about 3 weeks after treatment vs untreated controls
How it was run: as §3

SETVI = assay: Post-emergence action against SETVI, 1.28 kg/ha; assay type: in vivo, Setaria viridis; conditions: dosage 1280 g/ha, visual rating about 3 weeks after treatment vs untreated controls
How it was run: as §3

STEME = assay: Post-emergence action against STEME, 1.28 kg/ha; assay type: in vivo, Stellaria media; conditions: dosage 1280 g/ha, visual rating about 3 weeks after treatment vs untreated controls (100% = plants died)
How it was run: as §3

MATIN = assay: Post-emergence action against MATIN, 1.28 kg/ha; assay type: in vivo, Tripleurospermum inodorum (Matricaria inodora); conditions: dosage 1280 g/ha, visual rating about 3 weeks after treatment vs untreated controls (100% = plants died)
How it was run: as §3

ABUTH = assay: Pre-emergence action against ABUTH, 1280 g/ha; assay type: in vivo, Abutilon theophrasti; conditions: scored visually after about 3 weeks vs untreated controls (100% = plants have died)
How it was run: as §1

Row | Structure (SMILES) | Pre-emergence action against DIGSA (DIGSA [1]) [%] | pest or weed control at 1280 g/ha (LOLRI [2]) [%] | pest or weed control at 1280 g/ha (VERPE [3]) [%] | pest or weed control at 320 g/ha (AVEFA) [%] | pest or weed control at 320 g/ha (LOLRI [4]) [%] | pest or weed control at 320 g/ha (VERPE [5]) [%] | Post-emergence action against ALOMY (ALOMY [7]) [%] | Post-emergence action against PHBPU in % (PHBPU) [%] | Pre-emergence action against LOLRI (LOLRI [2]) [%] | Pre-emergence action against VERPE (VERPE [3]) [%] | Pre-emergence action against AVEFA in % (AVEFA) [%] | Pre-emergence action against LOLRI in % (LOLRI [4]) [%] | Pre-emergence action against VERPE in % (VERPE [5]) [%] | Post-emergence action against ALOMY (ALOMY [8]) [%] | Post-emergence action against DIGSA (DIGSA [9]) [%] | Post-emergence action against SETVI (SETVI) [%] | Post-emergence action against STEME (STEME) [%] | Post-emergence action against VERPE (VERPE [6]) [%] | Post-emergence action against AMARE in % (AMARE) [%] | Post-emergence action against MATIN (MATIN) [%] | also measured
1 | C=CCNC(=O)COc1nn(-c2ccccc2F)c(-c2ccc(F)nc2)c1Br [Example X-001, N-Allyl-2-{[4-bromo-1-(2-fluorophenyl)-5-(6-fluoropyridin-3-yl)-1H-pyrazol-3-yl]oxy}acetamide] | 100 | 100 | 100 | 90 | 100 | 80 | 90 | 80 |  |  |  |  |  |  |  |  |  |  |  |  | pest or weed control at 1280 g/ha (VERPE [6]): 100%; pest or weed control at 320 g/ha (AMARE): 80%
2 | COC(=O)CNC(=O)COc1nn(-c2ccccc2F)c(-c2ccc(F)nc2)c1Br [Example X-002] | 100 |  |  |  |  |  | 100 | 90 | 100 | 100 | 100 | 100 | 100 | 90 | 100 | 100 | 90 | 90 | 100 |  | 
3 | CN(C)S(=O)(=O)NC(=O)COc1nn(-c2ccccc2F)c(-c2ccc(F)nc2)c1Br [Example X-005] | 100 |  |  |  |  |  | 90 | 80 | 100 | 100 | 100 | 100 | 100 | 100 |  | 90 | 90 | 100 | 80 | 100 | 
4 | COC(=O)[C@@H](C)Oc1nn(-c2ccccc2F)c(-c2cncnc2)c1Br [VI-011, Methyl (2R)-2-{[4-bromo-1-(2-fluorophenyl)-5-(pyrimidin-5-yl)-1H-pyrazol-3-yl]oxy}propanoate] | 100 | 100 | 100 | 80 | 100 | 90 | 90 |  |  |  |  |  |  | 100 | 100 | 100 | 100 |  |  |  | Pre-emergence action against ABUTH (ABUTH): 90%; pest or weed control at 320 g/ha (AMARE): 80%
5 | COC(=O)C(C)Oc1nn(-c2ccccc2)c(-c2ccc(F)nc2)c1Cl (stereo not shown) [VII-023, Methyl 2-{[4-chloro-5-(6-fluoropyridin-3-yl)-1-phenyl-1H-pyrazol-3-yl]oxy}propanoate] | 90 | 100 | 100 | 90 | 100 | 80 | 90 | 90 |  |  |  |  |  |  | 90 |  | 100 |  |  | 90 | pest or weed control at 1280 g/ha (VERPE [6]): 100%; pest or weed control at 320 g/ha (AMARE): 90%
6 | COC(=O)COc1nn(-c2ccc(F)cc2)c(-c2cccnc2)c1Br [VII-028] |  |  |  |  |  |  | 80 | 90 |  | 90 |  |  | 100 |  |  | 90 | 100 | 90 | 80 | 90 | 
7 | COC(=O)C(C)Oc1nn(-c2ccccc2)c(-c2cccnc2)c1Cl (stereo not shown) [VII-032] | 90 |  |  |  |  |  | 90 | 90 | 100 | 100 | 80 | 100 | 100 |  | 90 | 90 | 100 | 100 | 90 | 90 | 
8 | COC(=O)COc1nn(-c2cc(F)ccc2F)c(-c2ccc(F)nc2)c1Br [VII-089] | 100 |  |  |  |  |  | 90 | 80 | 100 | 100 | 90 | 100 | 100 | 100 | 100 |  | 100 | 90 | 80 | 90 | 
9 | O=C(O)COc1nn(-c2ccccc2F)c(-c2ccnc(F)c2)c1Br [VIII-004] |  |  |  |  |  |  | 90 | 90 | 100 | 90 |  | 90 | 100 |  |  | 100 | 100 | 90 | 90 | 90 | 
